Read-outs that look alike come from different tables or passages of the source.
What was measured:
[1] = test system: human U87 glioma tumor; test: In vivo anti tumour effects, U87 glioma xenograft; conditions: U87 xenograft in NMRI Nude mice, 20 mg/kg p.o. QD for 5 days; for response vs control in vivo at 20 mg/kg: Mus musculus, U-87 MG, po
Experimental: Immuno-deficient (athymic) male NMRI Nude (Nu/Nu) mice (20-25 g obtained from Janvier, France) were used for these studies. Initial weight was approximately […]. All animals were maintained under SPF “full barrier” conditions with free access to food and water. Mice were group housed under a 12-h light:dark cycle (lights on at 06:00 h) at a temperature of 19 to 22° C. and 35 to 40% humidity in Techniplast type-3 IVC cages. Mice were fed a standard Laboratory chow. All experiments were carried out in accordance with the European Communities Council Directives (86/609/EEC) and had to be approved by the local ethical committee. For an established tumor xenograft model (tumor volume ˜200 mm^3), mice were randomized according to tumor volumes, with 5 mice per treatment group.
The human U87 glioma tumor cell line was derived from a patient. Cells were cultured at 37° C. in a humidified atmosphere (5% CO2, 95% air), in DMEM medium supplemented with 2 mM L-glutamine, 2.0 mM sodium pyruvate, 25 units/ml penicillin/25 μg/ml streptomycin and 10% fetal bovine serum. Cells were maintained as cell monolayer cultures, being passaged twice weekly at 3×10^6 cells per T175 flask using the following procedure. Briefly cells were washed with PBS (without Mg^2+, Ca^2+), before addition of trypsin-EDTA to the culture flasks. After detachment of cells the trypsin-EDTA was inactivated by addition of complete medium. Cell suspension was then transferred to 50 ml Falcon tube and centrifuged for 3 min at 1200 rpm. Medium was aspirated, with the cells being re-suspended in an appropriate volume of complete medium. The cells were counted in a haemocytometer and their viability was assessed by 0.25% trypan blue exclusion. An appropriate volume of cell suspension was then added to either a new T175 culture flask(s) or roller bottle containing fresh medium. For large scale-up growth of U87 tumor cells, an appropriate number of roller bottles were seeded with 0.5 to 1×10^7 cells 1 week prior to inoculation of mice. The medium was changed twice during this period, with the last change being the day prior to cell injection. Cells were collected as described above, with the exception that after centrifugation, the cells were re-suspended in cold (4° C.) serum-free medium. Mice were injected in the inguinal region with 1×10^7 cells total in a 200 μl volume.
Human U87 glioma cells were injected directly into the inguinal region of the male NMRI Nude mice (1×10^7 cells/200 μl/animal) on day 0 (D0). On day 7-10 (can vary due to tumor take/growth between cell batches) when tumor volume had reached an approximate average of 200 mm^3, mice were randomized according to tumor volume, with 5 mice per treatment group. Mice were then treated once daily (QD) with either vehicle (10% HP-β-CD) or vehicle containing test compound (20 mg/kg) by gavage (p.o.) administered in a volume of 10 ml/kg body weight for 5 days. Specific tumor measurements were taken on day 6 (24 hours post 5th dose) and then again on day 10. Tumor re-growth (after dosing has stopped) was monitored so that the time-to-reach a volume of 2000 mm^3 (TTR2000) can be recorded. This gives extra information on the duration of drug action on the tumor growth. In general, tumor size and body weights were measured twice weekly, with mice monitored daily for clinical signs of toxicity for the duration of the treatment. Clinical signs of toxicity included (but not limited to), persistent anorexia or dehydration, posture, moribund, lethargy, hypothermia and/or laboured respiration (according to the UKCCCR guidelines for welfare of animals in experimental neoplasia (The UKCCCR (UK Coordinating Committee on Cancer Research) guidelines for the welfare of animals in experimental neoplasia (July 1997); and Workman, P. et al. UKCCCR guideline. Br. J. Cancer. 1998, 77: 1-10). […]

[2] = test system: A2780 ovarian cancer cells; test: Alamar Blue cell proliferation assay, A2780; type: cell-based, human; conditions: 4-day incubation
Experimental: The human A2780 ovarian cancer cells were a kind gift from Dr. T. C. Hamilton (Fox Chase Cancer Centre, Pennsylvania, U.S.A.). The cells were cultured in RPMI 1640 medium supplemented with 2 mM L-Glutamine, 50 μg/ml gentamicin and 10% fetal calf serum.
Potassium Phosphate Buffer 0.1 M (PPB) was made as follows: 2.72 gram KH2PO4 and 13.86 gram K2HPO4 were dissolved in 500 ml milli-Q H2O, the pH was adjusted to pH 7.4 and the volume was brought to 1 liter with milli-Q H2O; the buffer was filter sterilised and stored at room temperature. Resazurin stock solution (PPB-A) was prepared fresh by dissolving 45 mg resazurin in 15 ml PBS. 30 mM potassium ferricyanide (PPB-B) was prepared by dissolving 0.987 gram potassium ferricyanide in 100 ml PPB. 30 mM potassium ferrocyanide (PPB-C) was prepared by dissolving 1.266 gram potassium ferrocyanide in 100 ml PPB.
Mixture of PPB-A, PPB-B and PPB-C was prepared by mixing equal volumes of the respective solutions. Resazurin work solution (herein termed “Alamar Blue” solution) was prepared by diluting said mixture 20×(vol/vol) in PPB and filter sterilising; the Alamar Blue solution could be kept at 4° C. for a maximum of 2 weeks.
(§1) For experiments in 384 wells plates the cells were seeded at a density of 5×10^3 cells/ml in Falcon 384-well culture plates (Life Technologies, Merelbeke, Belgium), black with clear bottom, in 45 μl culture medium. Cells were allowed to adhere to plastic for 24 hr. The tested compound was pre-diluted (1/50 in culture medium) and 5 μl pre-diluted compound was added to the wells. Following 4-day incubation, 10 μl of the Alamar Blue solution was added to each well and the cells were further incubated for 5 hrs (A2780) at 37° C. The fluorescence intensity was measured for each well with a Fluorescence plate reader (Fluorskan, Labsystems, 540 nm excitation and 590 nm emission)
(§2) The antiproliferative activity was calculated as percentage of remaining viable cells in treated versus control (untreated cells) conditions. Within an experiment, the result for each experimental condition is the mean of 3 replicate wells. When appropriate, the experiments were repeated to establish full concentration-response curves. When appropriate, IC50-values (concentration of the drug, needed to reduce cell growth to 50% of the control) were computed using probit analysis for graded data (Finney, D. J., Probit Analyses, 2nd Ed. Chapter 10, Graded Responses, Cambridge University Press, Cambridge 1962). Herein the effects of test compounds are expressed as pIC50 (the negative log value of the IC50-value (M)) (see Table 5A).

[3] = test system: non-small cell lung cancer cell line H1299; test: Alamar Blue cell proliferation assay, H1299; type: cell-based; conditions: H1299 cells
Experimental: as §1, §2
Compounds were also tested according to the above protocol but using other cell lines: colorectal cancer cell line HCT116, non-small cell lung cancer cell line H1299, human prostate cancer cell line DU145.

Compound	% T/C day 6 ([1]; day 6 after start dosing) [%]	% T/C day 10 ([1]; day 10 after start dosing) [%]	A2780 cell proliferation inhibition pIC50 [2]	H1299 cell proliferation inhibition pIC50 [3]	response vs control in vivo at 20 mg/kg ([1]; 144 h, day 6 after start dosing, read-out: % T/C day 6) [%]	response vs control in vivo at 20 mg/kg ([1]; 240 h, day 10 after start dosing, read-out: % T/C day 10) [%]
COc1cc(Nc2ccnc3c2CCC3O)ccc1NCCc1c[nH]c2c(C(C)(C)O)cccc12 (centres unmarked) [Compound 11]	72	79	6.55	5.81	–	–
COC1CCc2c(Nc3ccc(NCCc4c[nH]c5c(C(C)O)cccc45)c(C)c3)ccnc21 (centres unmarked) [Compound 16]	63	64	6.87	6.73	–	–
Cc1cc(Nc2ccnc3c2CCC3O)ccc1NCCc1c[nH]c2c(C(C)(C)O)cccc12 (centres unmarked) [Compound 18]	–	–	7.47	6.38	9	-3
Cc1cc(Nc2ccnc(CO)c2)ccc1NCCc1c[nH]c2c(C(C)(C)O)cccc12 [Compound 19]	57	40	7.34	5.46	–	–
Cc1cc(Nc2ccncc2)ccc1NCCc1c[nH]c2c(C(O)C(C)C)cccc12 (centres unmarked) [Compound 22]	40	55	6.26	5.09	–	–

— patent US8541442B2, “Indole derivatives as anticancer agents” (Janssen Pharmaceutica N.V., priority 2009, dated 2013)
